For this assay, the target named is T1, C-X-C chemokine receptor type 5 (Homo sapiens, UniProt P32302).
T1 sequence (P32302 whole entry): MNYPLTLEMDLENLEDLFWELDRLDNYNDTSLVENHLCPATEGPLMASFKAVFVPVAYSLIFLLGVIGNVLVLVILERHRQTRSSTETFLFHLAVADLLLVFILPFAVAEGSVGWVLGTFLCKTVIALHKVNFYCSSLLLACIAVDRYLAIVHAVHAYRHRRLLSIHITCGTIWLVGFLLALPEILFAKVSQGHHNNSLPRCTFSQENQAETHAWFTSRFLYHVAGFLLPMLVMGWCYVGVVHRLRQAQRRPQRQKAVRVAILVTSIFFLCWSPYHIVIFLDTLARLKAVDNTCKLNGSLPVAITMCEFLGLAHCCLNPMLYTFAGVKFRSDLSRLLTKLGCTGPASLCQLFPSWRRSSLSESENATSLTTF
The assay is described as follows: Antagonist activity against human CXCR5 expressed in RBL cells assessed as inhibition of human CXCL13-induced intracellular Ca2+ level by fluo-4/AM dye based FLIPR assay. The class given is functional, cell-based.

Take `Cc1cccc(C(=O)NC2(C(=O)O)Cc3ccc(C(=O)O)cc3C2)c1OC(C)C` (stereo unspecified): the IC50 (in general, the point on the concentration scale where inhibition reaches its midpoint) is above 30 µM.

`CCOc1ccc2ccccc2c1C(=O)NC1(C(=O)O)Cc2ccccc2C1`: the IC50 stood at 19.6 µM.

For the compound `Cc1cccc(C(=O)NC2(C(=O)O)Cc3ccc(C#N)cc3C2)c1OC1CCC1` (stereo unspecified), the IC50 amounted to 10.1 µM.

For the compound `Cc1cccc(C(=O)NC2(C(=O)O)Cc3ccc(C(N)=O)cc3C2)c1OC1CCC1` (stereo unspecified), the IC50 is above 30 µM.

Turning to `Cc1cccc(C(=O)NC2(C(=O)O)Cc3ccc(C(F)(F)F)cc3C2)c1OC1CCC1` (stereo unspecified), the IC50 came to 7.8 µM.

For the compound `O=C(NC1(C(=O)O)Cc2ccccc2C1)c1cccc2c1OCCO2`, the IC50 was above 30 µM.

With `Cc1cccc(C(=O)NC2(C(=O)O)Cc3ccccc3C2)c1C1=CCCC1`, the IC50 was 0.056 µM.

As for `Cc1cccc(C(=O)NC2(C(=O)O)Cc3ccc(C(F)(F)F)cc3C2)c1OC(C)C` (stereo unspecified), the IC50 stood at 14.8 µM.

In the case of `C/C=C/c1c(C)cccc1C(=O)NC1(C(=O)O)Cc2ccc(F)cc2C1` (stereo unspecified), the IC50 is 0.2 µM.

With `O=C(O)c1ccc2c(c1)CC(NC(=O)c1cccc3c1CCCC3)(C(=O)O)C2` (stereo unspecified), the IC50 was above 30 µM.

With `Cc1cccc(C(=O)NC2(C(=O)O)Cc3ccccc3C2)c1OCC1CC1`, the 50% inhibitory concentration (IC50) came to 2.93 µM.

For `Cc1cc2c(cc1C)CC(NC(=O)c1cccc(C)c1OC(C)C)(C(=O)O)C2`, the IC50 is 27 µM.

As to `C=CCOc1c(Cl)cc(Cl)cc1S(=O)(=O)NC1(C(=O)O)Cc2ccccc2C1`, the IC50 is 13 µM.

Consider `O=C(NC1(C(=O)O)Cc2ccccc2C1)c1cc(F)cc2c1OCOC2`, for which the IC50 was determined as 30 µM.

Consider `O=C(NC1(C(=O)O)Cc2ccccc2C1)c1cccc2ccccc12`, for which the IC50 amounted to 5.45 µM.

Regarding `CCCC#Cc1c(C)cccc1C(=O)NC1(C(=O)O)Cc2ccccc2C1`, the IC50 was 19.3 µM.

As to `Cc1cccc(C(=O)NC2(C(=O)O)Cc3ccccc3C2)c1C1=CCCCC1`, the IC50 came out at 1.05 µM.

In the case of `C/C=C/c1c(C)cccc1C(=O)NC1(C(=O)O)Cc2ccccc2C1`, the IC50 came to 0.232 µM.

As to `CCCc1c(C)cccc1C(=O)NC1(C(=O)O)Cc2ccc(F)cc2C1` (stereo unspecified), the IC50 was determined as 0.047 µM.

On to `Cc1cccc(C(=O)NC2(C(=O)O)Cc3ccc(C(N)=O)cc3C2)c1OC(C)C` (stereo unspecified), for which the IC50 was above 30 µM.

For the compound `CCCC(CC)c1c(C)cccc1C(=O)NC1(C(=O)O)Cc2ccccc2C1` (stereo unspecified), the IC50 stood at 3.87 µM.

On to `O=C(NC1(C(=O)O)Cc2ccc(F)cc2C1)c1cc(Cl)cc(Cl)c1OC1CCC1` (stereo unspecified), for which the IC50 amounted to 0.268 µM.

With `Cc1cccc(C(=O)NC2(C(=O)O)Cc3ccccc3C2)c1C1CCCC1`, the IC50 turned out to be 0.533 µM.

Consider `Cc1cccc(C(=O)NC2(C(=O)O)Cc3ccc(C#N)cc3C2)c1OC(C)C` (stereo unspecified), for which the IC50 was determined as 20.5 µM.

In the case of `CC(C)=Cc1c(C)cccc1C(=O)NC1(C(=O)O)Cc2cc(F)c(F)cc2C1`, the IC50 is 0.015 µM.

With `O=C(NC1(C(=O)O)Cc2ccccc2C1)c1cccc2cccnc12`, the IC50 was above 30 µM.

In the case of `O=C(NC1(C(=O)O)Cc2ccccc2C1)c1ccc(F)c2ccccc12`, the IC50 worked out at 13 µM.

As to `CCCCCc1c(C)cccc1C(=O)NC1(C(=O)O)Cc2ccccc2C1`, the IC50 turned out to be 2.3 µM.

`CCC/C=C/c1c(C)cccc1C(=O)NC1(C(=O)O)Cc2ccccc2C1`: the IC50 came to 0.446 µM.

On to `Cc1cccc(C(=O)NC2(C(=O)O)Cc3ccccc3C2)c1CC(C)C`, for which the IC50 was 0.014 µM.

Turning to `O=C(O)C1(NS(=O)(=O)c2cccc3cccnc23)Cc2ccccc2C1`, the IC50 was above 30 µM.

Turning to `COc1ccc2c(c1)CC(NC(=O)c1cccc(C)c1OC(C)C)(C(=O)O)C2` (stereo unspecified), the IC50 came to 18.2 µM.

Take `Cc1cccc(C(=O)NC2(C(=O)O)Cc3ccc(F)cc3C2)c1OC(C)C` (stereo unspecified): the IC50 came out at 0.537 µM.

For the compound `Cc1cccc(C(=O)NC2(C(=O)O)CCSCC2)c1OC(C)C`, the concentration for half-maximal inhibition (IC50) was found to be 24 µM.

`CC(C)=Cc1c(C)cccc1C(=O)NC1(C(=O)O)Cc2ccc(Cl)cc2C1` (stereo unspecified): the IC50 came to 0.009 µM.

For `Cc1cccc(C(=O)NC2(C(=O)O)Cc3ccc(C(=O)O)cc3C2)c1OC1CCC1` (stereo unspecified), the IC50 is above 30 µM.

For `CC(C)Oc1c(Cl)cc(Cl)cc1S(=O)(=O)NC1(C(=O)O)Cc2ccccc2C1`, the IC50 is 16 µM.

Regarding `COc1ccc2c(c1)CC(NC(=O)c1cccc3c1CCCC3)(C(=O)O)C2` (stereo unspecified), the IC50 turned out to be 9.5 µM.

For the compound `O=C(NC1(C(=O)O)Cc2ccccc2C1)c1cccc2c1CCCC2`, the IC50 stood at 0.675 µM.

For `CCC(C)Oc1c(C)cccc1C(=O)NC1(C(=O)O)Cc2ccccc2C1` (stereo unspecified), the IC50 worked out at 1.08 µM.

Consider `CC(C)=Cc1c(C)cccc1C(=O)NC1(C(=O)O)Cc2ccccc2C1`, for which the IC50 came out at 0.033 µM.

As to `O=C(NC1(C(=O)O)Cc2ccccc2C1)c1cccc2cc[nH]c12`, the IC50 was above 30 µM.

With `O=C(NC1(C(=O)O)Cc2ccccc2C1)c1cnc2ccccc2n1`, the IC50 is above 30 µM.

Consider `O=C(NC1(C(=O)O)Cc2ccc(F)cc2C1)c1cccc2c1CCCC2` (stereo unspecified), for which the IC50 was found to be 0.298 µM.

Regarding `Cc1cccc(C(=O)NC2(C(=O)O)Cc3ccc(F)cc3C2)c1OC1CCC1` (stereo unspecified), the IC50 was determined as 0.38 µM.

As for `Cc1cccc(C(=O)NC2(C(=O)O)Cc3ccc(F)cc3C2)c1CC(C)C` (stereo unspecified), the IC50 turned out to be 0.015 µM.

For `CC(C)=Cc1c(C(=O)NC2(C(=O)O)Cc3ccccc3C2)cccc1C(F)(F)F`, the IC50 was 0.026 µM.

For `CC/C=C(/CC)c1c(C)cccc1C(=O)NC1(C(=O)O)Cc2ccccc2C1`, the IC50 came out at 15.2 µM.

As for `CC(C)=Cc1c(C)cccc1C(=O)NC1(C(=O)O)Cc2c(F)ccc(F)c2C1`, the IC50 worked out at 0.038 µM.

Consider `NC(=O)c1ccc2c(c1)CC(NC(=O)c1cccc3c1CCCC3)(C(=O)O)C2` (stereo unspecified), for which the IC50 was above 30 µM.

For the compound `CCCc1c(C)cccc1C(=O)NC1(C(=O)O)Cc2cc(F)c(F)cc2C1`, the IC50 came to 0.045 µM.

For the compound `C=CCOc1c(Cl)cccc1C(=O)NC1(C(=O)O)Cc2ccccc2C1`, the IC50 was found to be 3.65 µM.

Turning to `Cc1cccc(C(=O)NC2(C(=O)O)Cc3ccc(F)cc3C2)c1C1=CCCC1` (stereo unspecified), the IC50 worked out at 0.013 µM.

Take `Cc1cccc(C(=O)NC2(C(=O)O)Cc3c(C)sc(C)c3C2)c1OC(C)C`: the IC50 turned out to be 17.4 µM.

With `Cc1cccc(C(=O)NC2(C(=O)O)Cc3ccccc3C2)c1CCC1CC1`, the IC50 came to 0.097 µM.

On to `O=C(NC1(C(=O)O)Cc2ccccc2C1)c1cccc2[nH]ccc12`, for which the IC50 was above 30 µM.

As to `CCC/C=C\c1c(C)cccc1C(=O)NC1(C(=O)O)Cc2ccccc2C1`, the IC50 came to 0.099 µM.

Consider `N#Cc1ccc2c(c1)CC(NC(=O)c1cccc3c1CCCC3)(C(=O)O)C2` (stereo unspecified), for which the IC50 amounted to 30 µM.

For the compound `Cc1cccc(C(=O)NC2(C(=O)O)Cc3ccccc3C2)c1/C=C/C1CC1`, the 50% inhibitory concentration (IC50) was 8.2 µM.

For the compound `Cc1cccc(C(=O)NC2(C(=O)O)Cc3ccccc3C2)c1OC1CCC1`, the IC50 turned out to be 0.47 µM.

Turning to `O=C(NC1(C(=O)O)Cc2ccccc2C1)c1cncc2ccccc12`, the IC50 was above 30 µM.

Turning to `CC(C)=Cc1c(C)cccc1C(=O)NC1(C(=O)O)Cc2ccc(F)cc2C1` (stereo unspecified), the IC50 came to 0.011 µM.

Turning to `Cc1cccc(C(=O)N(C)C2(C(=O)O)Cc3ccccc3C2)c1OC(C)C`, the concentration for half-maximal inhibition (IC50) is above 30 µM.

Turning to `Cc1cccc(C(=O)NC2(C(=O)O)Cc3cc(F)c(F)cc3C2)c1CC(C)C`, the IC50 came to 0.017 µM.

`O=C(NC1(C(=O)O)Cc2ccccc2C1)c1cccc2c1NCCC2`: the IC50 is above 30 µM.

On to `Cc1sc(C)c2c1CC(NC(=O)c1cccc3c1CCCC3)(C(=O)O)C2`, for which the IC50 worked out at 2.85 µM.

Regarding `CC(C)=Cc1c(C)cccc1C(=O)NC1(C(=O)O)Cc2ccc(F)c(F)c2C1` (stereo unspecified), the IC50 stood at 0.005 µM.

`CCCc1c(C)cccc1C(=O)NC1(C(=O)O)Cc2ccccc2C1`: the IC50 was found to be 0.023 µM.

`O=C(NC1(C(=O)O)Cc2ccc(C(F)(F)F)cc2C1)c1cccc2c1CCCC2` (stereo unspecified): the IC50 was found to be 6.1 µM.

Consider `Cc1cccc(C(=O)N[C@@]2(C(=O)O)Cc3ccc(F)cc3C2)c1CC(C)C` (single isomer, unassigned), for which the IC50 is 0.007 µM.

For the compound `Cc1cccc(C(=O)N[C@]2(C(=O)O)Cc3ccc(F)cc3C2)c1CC(C)C` (single isomer, unassigned), the IC50 came to 0.03 µM.

Values taken from ChEMBL document CHEMBL3714728, “Substituted benzoylamino-indan-2-carboxylic acids and related compounds” (2010).
